Reference: patent publication EP4570800A1, “CRYSTAL FORM OF PYRIDINOPYRIMIDINONE COMPOUND, ACID SALT THEREOF, CRYSTAL FORM OF ACID SALT THEREOF, AND USE” (Wuhan Humanwell Innovative Drug Research and Development …, priority 2022, dated 2024)
pIC50: −log10 of the molar value.

Molecular target: T1, KRAS G12C::SOS1 (Homo sapiens, UniProt Q07889)
T1 sequence (Q07889 564-1049 limits assumed): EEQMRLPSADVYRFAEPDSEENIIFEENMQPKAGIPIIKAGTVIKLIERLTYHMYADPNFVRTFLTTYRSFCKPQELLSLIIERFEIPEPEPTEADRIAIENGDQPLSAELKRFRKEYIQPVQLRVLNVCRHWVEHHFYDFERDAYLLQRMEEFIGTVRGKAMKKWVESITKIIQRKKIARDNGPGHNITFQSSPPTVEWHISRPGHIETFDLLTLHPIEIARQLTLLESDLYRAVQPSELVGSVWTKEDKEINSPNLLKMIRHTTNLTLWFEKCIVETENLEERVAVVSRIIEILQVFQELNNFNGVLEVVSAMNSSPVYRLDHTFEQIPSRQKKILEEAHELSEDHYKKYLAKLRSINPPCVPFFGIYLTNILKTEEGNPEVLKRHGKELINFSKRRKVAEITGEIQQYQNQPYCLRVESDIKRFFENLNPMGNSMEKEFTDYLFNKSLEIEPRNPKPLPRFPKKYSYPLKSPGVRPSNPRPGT
Test: Inhibition of KRAS G12C::SOS1 binding (anti-6his-Tb / anti-GST-XL665 fluorescence ratio)
Settings: GST-KRAS G12C and His-SOS1

Compound: Cc1nc(N[C@H](C)c2cccc(S(F)(F)(F)(F)F)c2)c2cn(C3(CF)CC3)c(=O)cc2n1 [Compound of formula I, (R)-6-(1-(fluoromethyl)cyclopropyl)-2-methyl-4-((1-(3-(pentafluorosulfanyl)phenyl)ethyl)amino)pyrido[4,3-d]pyrimidin-7(6H)-one]
- pIC50: 8.40
